This note sets out measurements from US12084479B2, “Modified antimicrobial peptide derived from an arginine-rich domain” (priority 2016, dated 2024).

Data set [1] has as its system P. aeruginosa. The data set is classed as cell-based, Pseudomonas aeruginosa. The protocol: (§1) The antimicrobial activities of HBcARD peptides were tested using a number of bacterial strains, including Pseudomonas aeruginosa Migula strains (ATCC 27853, ampicillin-resistant and ATCC 9027, ampicillin-resistant), Klebsiella pneumoniae strain (ATCC 13884), Shigella dysenteriae Xen27 (Caliper Co.), Escherichia coli strain (ATCC 25922), Staphylococcus aureus subsp. strains (ATCC 25923, methicillin-resistantATCC 29213, methicillin-resistant and ATCC 19636, methicillin-resistant) and Acinetobacter baumannii strains (ATCC 17978, ATCC 17978 CR, ATCC19606, ATCC 19606 CR, TCGH 45530 and TCGH 46709). Clinical isolates TCGH 45530 and TCGH 46709 were obtained from Tzu-Chi Buddhist General Hospital (TCGH) in Taiwan, and were identified using the Vitek system (Biomerieux Vitek, Inc., Hazelwood, MO, USA). See Chang et al. (2012), J Microbiol Immunol Infect 45:37-42 doi:10.1016/j.jmii.2011.09.019.
(§2) L- and D-HBcARD peptides were purchased from Yao-Hong Biotechnology Inc. (Taipei, Taiwan). Antimicrobial activity was determined as described. See, Chen et al., 2013. Briefly, bacteria were grown in MH broth (Difco) to mid-logarithmic phase at 37° C., and were diluted to 10^6 CFU (colony formation unit)/ml in phosphate buffer (10 mM sodium phosphate and 50 mM sodium chloride, pH 7.2). Peptides were serially diluted in the same buffer. Fifty microliters (μl) of bacteria were mixed with fifty μl of peptides at varying concentrations, followed by incubation at 37° C. for 3 hours without shaking. At the end of incubation, bacteria were placed on Mueller-Hinton broth agar plates, and allowed to grow at 37° C. overnight for measurement of minimal bactericidal concentration (MBC).
(§3) All peptides were tested in triplicate.

For data set [2], the system named is A. baumannii. It counts as cell-based, Acinetobacter baumannii. The protocol:
as §1, §2, §3

Data set [3] deals with S. dysenteriae Xen27. It counts as cell-based, Shigella dysenteriae. The protocol:
as §1
L- and D-HBcARD peptides were purchased from Yao-Hong Biotechnology Inc. (Taipei, Taiwan). Antimicrobial activity was determined as described. See, Chen et al., 2013. Briefly, bacteria were grown in MH broth (Difco) to mid-logarithmic phase at 37° C., and were diluted to 10^6 CFU (colony formation unit)/ml in phosphate buffer (10 mM sodium phosphate and 50 mM sodium chloride, pH 7.2). Peptides were serially diluted in the same buffer. […]

Data set [4] relates to E. coli. The data set is classed as cell-based, Escherichia coli. The protocol: as §1, §2, §3
Data set [5] can be described thus: Protease resistance assay (serum stability), SDS-PAGE and Green Angel staining. The data set is classed as in vitro ADME. Conditions: 5% bovine serum, 37° C. The protocol: To compare the stability of the 37-mer L- and D-HBcARD peptides against serum protease degradation, we performed a protease resistance assay. After incubation with 5% bovine serum at 37° C. for 3 hours, more than 80% of L-HBcARD peptide was no longer detectable by staining with Green Angel on SDS-PAGE. In contrast, the signal intensity of the D-HBcARD peptide was not reduced under the same condition.
L- and D-HBcARD peptides (0.5 nmol) were mixed with MBC buffer in the presence or absence of 5% serum collected from bovine, mouse and human origins. After incubation at 37° C. for 3 hours, the amounts of peptides surviving the protease digestion were determined by SDS-PAGE electrophoresis and staining with Green Angel. The images were quantified using image J software and the intensities were normalized with the no serum control. To investigate the effect of serum on the antimicrobial activity of HBcARD peptides, L- and D-HBcARD peptides at their respective MBC concentrations were incubated with S. aureus ATCC19636 strain (10^6 CFU/ml) at 37° C. for three hours. Bacteria were plated on MH agar and the antimicrobial activity was determined by colony formation.

For data set [6], the system named is S. aureus. The data set is classed as cell-based, Staphylococcus aureus. The protocol:
as §1, §2, §3

The subject of data set [7] is human red blood cells (hRBCs). Briefly: Hemolytic activity. Conditions: up to 460 mg/L, 37° C., one hour. The data set is classed as cell-based. The protocol: In the hemolysis assay, human RBCs were incubated with serially-diluted doses (0 to 460 mg/L) of D-HBcARD, L-HBcARD, or melittin, at 37° C. for one hour.
The hemolytic activities of peptides were determined by hemolysis against human red blood cells (hRBCs). Human blood was obtained in EDTA-containing tube and was centrifuged at 450 g for 10 min. The pellet was washed three times with PBS buffer, and a solution of 10% hRBCs was prepared. hRBCs solution was mixed with serial dilutions of peptides in PBS buffer, and the reaction mixtures were incubated for 1 h at 37° C. After centrifugation at 450 g for 10 min, the percentage of hemolysis was determined by measuring the absorbance at the wavelength of 405 nm of the supernatant. Blank and 100% hemolysis were determined in PBS buffer and in the presence of 1% Triton X-100, respectively.

Data set [8] has as its system S. aureus ATCC 19636. Nature of the data set: Immunogenicity: sepsis model in peptide-immunized mice. It counts as in vivo, ICR mice. As to conditions: immunized three times with 5 mg/kg peptide. The protocol:
FIG. 4 is a set of graphs showing comparison of in vivo protection activities between L- and D-form HBcARD peptides in a mouse sepsis model infected with S. aureus. (A) Three week-old ICR mice were inoculated with S. aureus (4×10^6 CFU/mouse) and i.p. injected with PBS, L-HBcARD, or D-HBcARD at 2 hours post-inoculation. Each group contained ten mice. (B) and (C) Three week-old ICR mice were immunized with L- and D-HBcARD peptides (5 mg/kg), respectively, at day 0, 3 and 6. On day 14, the mice were inoculated with S. aureus (4×10^6 CFU/mouse) and i.p. injected with PBS, L-HBcARD or D-HBcARD (10 mg/kg) at 1 hour post-inoculation, respectively. Another group of mice were treated with PBS in parallel as a control. Each group of animals contained five mice. *P<0.05; ***P<0.0001; ns, no significance.
To investigate whether repeated treatments with the 37-mer HBcARD peptides may compromise the efficacy by inducing neutralization antibody in vivo, we immunized 3-week old mice three times with L- and D-HBcARD peptides, respectively, prior to bacterial infection. […]
To investigate the potential immunogenicity of HBcARD peptides, we determined the in vivo antimicrobial activity of HBcARD peptide in peptide-immunized mice. […] Mortality was monitored daily for 7 days following the bacterial inoculation.

The subject of data set [9] is colistin-resistant A. baumannii TCGH 46709. Nature of the data set: Mouse lung infection model, intra-tracheal inoculation. The data set is classed as in vivo, BALB/c mice. As to conditions: 5 mg/kg/day ip. The protocol: FIG. 6 is a graph showing in vivo protection efficacies of 150-177C and 150-177Q peptides in a BALB/c mouse lung infection model. Colistin-resistant A. baumannii was inoculated via intra-tracheal route.
BALB/c mice (n=8/group) were intra-tracheally inoculated with colistin-resistant A. baumannii TCGH 46709 (3.4×10^8 cfu/mouse). These lung-infected mice were ip. treated with colistin (5 mg/kg/day) or D-150-177C (5 and 10 mg/kg/day), respectively.

Data set [10] concerns K. pneumoniae. The data set is classed as cell-based, Klebsiella pneumoniae. The protocol: as §1, §2, §3

Values after ≈ are worked out from the molar mass of the structure shown. Where two headings read alike, the source gives them in different places. Where a SMILES comes first, the peptide text is derived from it. Where no end group is shown, it is not given here. [ ]: non-standard residue; d: D form.

Turning to `CC(C)[C@H](NC(=O)[C@@H](NC(=O)[C@@H](N)[C@@H](C)O)C(C)C)C(=O)N[C@H](CCCNC(=N)N)C(=O)N[C@H](CCCNC(=N)N)C(=O)N[C@H](CCCNC(=N)N)C(=O)NCC(=O)N[C@H](CCCNC(=N)N)C(=O)N[C@@H](CO)C(=O)N1CCC[C@H]1C(=O)N[C@H](CCCNC(=N)N)C(=O)N[C@H](CCCNC(=N)N)C(=O)N[C@H](CCCNC(=N)N)C(=O)N[C@H](C(=O)N1CCC[C@H]1C(=O)N[C@@H](CO)C(=O)N1CCC[C@H]1C(=O)N[C@H](CCCNC(=N)N)C(=O)N[C@H](CCCNC(=N)N)C(=O)N[C@H](CCCNC(=N)N)C(=O)N[C@H](CCCNC(=N)N)C(=O)N[C@@H](CO)C(=O)N[C@@H](CCC(N)=O)C(=O)N[C@@H](CO)C(=O)N1CCC[C@H]1C(=O)N[C@H](CCCNC(=N)N)C(=O)N[C@H](CCCNC(=N)N)C(=O)N[C@H](CCCNC(=N)N)C(=O)N[C@H](CCCNC(=N)N)C(=O)N[C@@H](CO)C(=O)N[C@@H](CCC(N)=O)C(=O)N[C@@H](CO)C(=O)N[C@H](CCCNC(=N)N)C(=O)N[C@@H](CCC(=O)O)C(=O)N[C@@H](CO)C(=O)N[C@@H](CCC(N)=O)C(=O)N[C@@H](CS)C(=O)O)[C@@H](C)O` [D-HBcARD, TVVrrrGrSPrrrTPSPrrrrSQSPrrrrSQSrESQC] (H-TVV[dR][dR][dR]G[dR]SP[dR][dR][dR]TPSP[dR][dR][dR][dR]SQSP[dR][dR][dR][dR]SQS[dR]ESQC-OH; N-terminus and C-terminus assumed), the figures for the Minimal bactericidal concentration in data set [1], in data set [3] (S. dysenteriae Xen27) and in [4] were 4.6 mg/L (≈ 1 µM), 73.6 mg/L (≈ 16 µM) and 73.6 mg/L (≈ 16 µM), respectively. Moreover, the values for the minimum bactericidal concentration (MBC) in data set [2] and in [6] were 2.3 to 4.6 mg/L and 4.6 to 9.2 mg/L, respectively. The “signal intensity of the peptide after serum incubation” value in data set [5] (3 hours) is recorded as “not reduced”. In addition, the hemolytic activity result in data set [7] was “no hemolytic activity”. For the same compound, the “neutralization activity induced by prior immunizations” value in data set [8] is given as “no neutralization activity”.

Consider colistin, for which, in data set [9], the survival outcome is recorded as “died at 60 hours post-inoculation”.

For the compound “TVVRRRGRSPRRRTPSPRRRRSQSPRRRRSQSRESQC [L-HBcARD]”, the Minimal bactericidal concentration worked out at 18.4 mg/L in data set [3], 18.4 mg/L in data set [4], 18.4 mg/L in data set [6] and 9.2 mg/L in [10]. Also, the metabolised at 3 h in data set [5] (read-out: peptide no longer detectable by staining with Green Angel on SDS-PAGE) is greater than 80%. Moreover, the hemolytic activity result in [7] is listed as “no hemolytic activity”. Moreover, in data set [8], the “neutralization activity induced by prior immunizations” value is reported as “no neutralization activity”.

Usually MBC stands for the smallest concentration meeting the test's criterion for killing. A lower MBC goes with greater bactericidal potency.
